# Measured values taken from patent publication US8492589B2, “Alkynyl phenyl derivative compounds for treating ophthalmic diseases and disorders” (Acucela Inc., priority 2007, dated 2013).
# Marks after values point to notes of the source that are not given here.
# Tests used:
# [1] = test system: ERG response in the eyes of mice; test: Electroretinographic (ERG) study, C57BL/6 mice; type: in vivo; settings: for b-wave ampl. 0.01 cd.s/m^2: dark-adapted ERG, in µV (unit assumed); for Vmax average: light-adapted ERG
# Description: This example describes determining the effect of an alkyne derivative compound that is a visual cycle modulator on the magnitude of the ERG response in the eyes of mice after oral dosing of the animals with the compound. […]
# Three groups of nine-week old mice (19-25 grams), both genders (strain C5 7BL/6, Charles River Laboratories, Wilmington, Mass.) are housed at room temperature, 72±4° F., and relative humidity of approximately 25%. Animals are housed in a 12-hour light/dark cycle environment, have free access to feed and drinking water and are checked for general health and well-being prior to use and during the study. Body weights are determined for a representative sample of mice prior to initiation of dosing. The average weight determined from this sampling is used to establish the dose for all mice in the study.
# (§1) Each test compound is dissolved in the control solvent (EtOH), and diluted 1:10 ([…]) in corn oil (Crisco Pure Corn Oil, J.M. Smucker Company, Orrville, Ohio) to the desired dose (mg/kg) in the desired volume (˜0.1 mL/animal). The control vehicle is ethanol: corn oil (1:10 (0.9 ml/9 ml)). The treatment designations and animal assignments are described in Table 16.
# (§2) Animals are dosed once orally by gavage, with the assigned vehicle control or test compounds during the light cycle (between 30 min and 3 hours 30 min after the beginning of the light cycle).
# (§3) ERG recordings are made on dark-adapted and, subsequently (during the course of the same experiment), on light-adapted states. For the dark-adapted response, animals are housed in a dark-adapted environment for at least 1 hour prior to the recording, commencing at least 30 minutes after the start of the light cycle.
# (§4) Pupils were dilated by placing a 5 microliter drop of mydriatic solution (tropicamide 0.5%) in the recorded eye. A mouse corneal monopolar contact lens electrode (Mayo Corporation, Inazawa, Aichi, Japan) was placed on the cornea, and a subcutaneous reference low profile needle 12 mm electrode (Grass Telefactor, W Warwick, R.I.) was placed medial from the eye. A ground needle electrode was placed in the tail. Data collection was obtained using an Espion E^2 (Diagnosys LLC, Littleton, Mass.) ERG recording system with Color Dome Ganzfeld stimulator. Full dark-adapted intensity-response function was determined following a brief white flash stimuli of 14 intensities ranging from 0.0001 cd·s/m^2 to 333 cd·s/m^2. Subsequently, full light-adapted intensity-response function was determined following a brief white flash stimuli of 9 intensities ranging from 0.33 cd·s/m^2 to 333 cd·s/m^2. Analysis of the obtained responses was done off-line. Intensity-response function determination was done by fitting a sigmoid function to the data (Naka K I, Rushton Wash., 1966; Naka K I, Rushton Wash., 1967).
# [2] = target: T1, recombinant human RPE65 and LRAT (Homo sapiens, UniProt Q16518); test: In vitro isomerase inhibition assay, recombinant human enzyme system (HEK293 homogenate); type: biochemical
# T1 construct: expressed in transfected cells; host or cells: HEK293 cell clone (homogenate); CRALBP was made in E. coli TOP10
# T1 sequence (Q16518 2-533 limits assumed): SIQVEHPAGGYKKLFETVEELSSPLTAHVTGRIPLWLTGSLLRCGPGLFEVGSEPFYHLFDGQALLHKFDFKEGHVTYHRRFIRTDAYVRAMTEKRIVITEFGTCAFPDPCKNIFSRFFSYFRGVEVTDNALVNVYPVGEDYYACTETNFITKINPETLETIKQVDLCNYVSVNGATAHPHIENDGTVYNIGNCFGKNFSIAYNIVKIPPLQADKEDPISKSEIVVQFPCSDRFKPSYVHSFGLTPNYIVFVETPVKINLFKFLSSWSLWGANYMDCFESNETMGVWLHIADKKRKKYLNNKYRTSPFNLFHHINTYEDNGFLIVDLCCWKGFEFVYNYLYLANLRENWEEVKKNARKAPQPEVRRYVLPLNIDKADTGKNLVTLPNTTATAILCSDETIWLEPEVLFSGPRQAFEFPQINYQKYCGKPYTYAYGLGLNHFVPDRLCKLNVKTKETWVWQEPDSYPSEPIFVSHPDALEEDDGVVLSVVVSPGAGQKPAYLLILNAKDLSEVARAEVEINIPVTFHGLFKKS
# Description: The concentration dependent effect of the compounds disclosed herein on the retinol isomerization reaction can also be evaluated with a recombinant human enzyme system. […] A homogenate of HEK293 cell clone expressing recombinant human RPE65 and LRAT were the source of the visual enzymes, and exogenous all-trans-retinol (about 20 μM) was used as the substrate. Recombinant human CRALBP (about 80 ug/mL) was added to enhance the formation of 11-cis-retinal. The 200 μL Bis-Tris Phosphate buffer (10 mM, pH 7.2) based reaction mixture also contains 0.5% BSA, and 1 mM NaPPi. In this assay, the reaction was carried out at 37° C. in duplicates for one hour and was terminated by addition of 300 μL methanol. The amount of reaction product, 11-cis-retinol, was measured by HPLC analysis following Heptane extraction of the reaction mixture. […] The ability of the numerous compounds disclosed herein to inhibit isomerization reaction is quantified and the respective IC50 value is determined. The tables below summarises the IC50 values of various compounds of the present invention determined by either of the above two methods. FIG. 1 is a representative figure of the IC50 determination of the compound of Example 2.
# [3] = test system: ERG response in the eyes of mice; test: Electroretinographic (ERG) study, BALB/c mice; type: in vivo; set-up: Vmax average: unit not given beside the values; settings: for b-wave ampl. 0.01 cd.s/m^2: dark-adapted ERG, in µV (unit assumed); for Vmax average: light-adapted ERG
# Description: as §1, §2, §3, §4
# A related example describes determining the effect of an alkyne derivative compound that is a visual cycle modulator on the level of ERG response in the eyes of mice after oral dosing of the animals with the compound. The experimental procedure is the same as that described in the previous example with the following exceptions: 12 to 16-week old BALB/c mice were used (body weights 16-25 g).
# [4] = 4 h, dose 1 (mg/kg oral), aggregated average
compound,measurement,setting,value
"CCCC(O)(C#Cc1cccc(CCCN)c1)CCC [Example 2, 4-((3-(3-Aminopropyl)phenyl)ethynyl)heptan-4-ol]",Change vs. control (%),"[1]; dark-adapted ERG b-wave, 4 h, dose 0.5 (mg/kg oral)",−50.65%
same,Change vs. control (%),"[1]; dark-adapted ERG b-wave, 4 h, dose 1 (mg/kg oral)",−94.04%
same,Change vs. control (%),"[1]; dark-adapted ERG b-wave, 25 h, dose 1 (mg/kg oral), compared to 4 hours vehicle",−19.93%**
same,b-wave ampl. 0.01 cd.s/m^2,"[1]; 4 h, dose 0.5 (mg/kg oral)",265
same,b-wave ampl. 0.01 cd.s/m^2,[1]; [4],32*
same,b-wave ampl. 0.01 cd.s/m^2,"[1]; 25 h, dose 1 (mg/kg oral)",430
same,Change vs. control (%),"[1]; light-adapted ERG Vmax, 4 h, dose 0.5 (mg/kg oral)",36.49%
same,Change vs. control (%),"[1]; light-adapted ERG Vmax, 4 h, dose 1 (mg/kg oral)",77.03%
same,Change vs. control (%),"[1]; light-adapted ERG Vmax, 25 h, dose 1 (mg/kg oral), compared to 4 hours vehicle",91.89%**
same,Vmax average,"[1]; 4 h, dose 0.5 (mg/kg oral)",202
same,Vmax average,[1]; [4],262*
same,Vmax average,"[1]; 25 h, dose 1 (mg/kg oral)",284
same,inhibition of isomerase activity (figure legend),[2],concentration-dependent inhibition
"CCCC(O)(C#Cc1cccc(C(O)CCN)c1)CCC (centres unmarked) [Example 19, 4-((3-(3-Amino-1-hydroxypropyl)phenyl)ethynyl)heptan-4-ol]",Change vs. control (%),"[3]; dark-adapted ERG b-wave, 4 h, dose 0.2, BALB/c mice",−52.89%
same,Change vs. control (%),"[3]; dark-adapted ERG b-wave, 4 h, dose 0.3, BALB/c mice",−80.77%
same,Change vs. control (%),"[3]; dark-adapted ERG b-wave, 4 h, dose 0.6, BALB/c mice",−95.92%
same,Change vs. control (%),"[3]; dark-adapted ERG b-wave, 25 h, dose 0.3, BALB/c mice, compared to 4 hours vehicle",−55.75%**
same,b-wave ampl. 0.01 cd.s/m^2,"[3]; 4 h, dose 0.2, BALB/c mice",263
same,b-wave ampl. 0.01 cd.s/m^2,"[3]; 4 h, dose 0.3, BALB/c mice, aggregated average",107*
same,b-wave ampl. 0.01 cd.s/m^2,"[3]; 4 h, dose 0.6, BALB/c mice",23
same,b-wave ampl. 0.01 cd.s/m^2,"[3]; 25 h, dose 0.3, BALB/c mice",247
same,Change vs. control (%),"[3]; light-adapted ERG Vmax, 4 h, dose 0.2, BALB/c mice",−0.13%
same,Change vs. control (%),"[3]; light-adapted ERG Vmax, 4 h, dose 0.3, BALB/c mice",11.33%
same,Change vs. control (%),"[3]; light-adapted ERG Vmax, 4 h, dose 0.6, BALB/c mice",6.34%
same,Change vs. control (%),"[3]; light-adapted ERG Vmax, 25 h, dose 0.3, BALB/c mice",10.66%
same,Vmax average,"[3]; 4 h, dose 0.2, BALB/c mice",163
same,Vmax average,"[3]; 4 h, dose 0.3, BALB/c mice",181
same,Vmax average,"[3]; 4 h, dose 0.6, BALB/c mice",173
same,Vmax average,"[3]; 25 h, dose 0.3, BALB/c mice",180
